Several values for one entry are separate records, joined by “and”; a condition that tells them apart may be missing. Equal entries are not always repeated.
What was measured:
[1] = system: pregnancy in rats; experiment: Pregnancy termination in rats, compounds administered intragastrically on day 10 of pregnancy (Table 3); type: in vivo, rat; settings: autopsy day 14
Protocol: (§1) The following tables list the results for a compound of Formula IV as compared with a control of previously known 2α-cyano-17β-hydroxy-3-oxo-4,4,17α-trimethylandrost-5-end(Cyanoketone) for termination of pregnancy.
^1 Compounds were administered intragastrically once daily on days 10
of pregnancy in a vehicle consisting of PEG400, propylene glycol and 100
percent ethanol (50:40:10, v:v:v). Serum for progesterone determination
was drawn on day 11 of pregnancy, 24 hours after the initial injection of
(§2) compound. The animals were autopsied on day 14 of pregnancy.

[2] = system: pregnancy in rats; experiment: Termination of pregnancy in rats, compounds administered subcutaneously (Table 2); type: in vivo, rat
Protocol: as §1
^1 Compounds given subcutaneously in corn oil vehicle once daily on
days 10 through 13 of pregnancy. Serum for progesterone determination was
drawn on day 11 of pregnancy, 24 hours after the initial injection of
as §2
^2 Serum progesterone values determined by RIA at Interlab Associates

[3] = 1 mg/kg intragastrically once on day 10 of pregnancy
[4] = 2 mg/kg intragastrically once on day 10 of pregnancy
[5] = 4 mg/kg intragastrically once on day 10 of pregnancy
[6] = 8 mg/kg intragastrically once on day 10 of pregnancy
[7] = 16 mg/kg intragastrically once on day 10 of pregnancy
[8] = 32 mg/kg intragastrically once on day 10 of pregnancy
[9] = 1 mg/kg/day subcutaneously days 10-13 of pregnancy, serum day 11, 24 hours after initial injection
[10] = 1 mg/kg/day subcutaneously in corn oil once daily days 10-13 of pregnancy, autopsy day 14
[11] = 2 mg/kg/day subcutaneously days 10-13 of pregnancy, serum day 11, 24 hours after initial injection
[12] = 2 mg/kg/day subcutaneously in corn oil once daily days 10-13 of pregnancy, autopsy day 14
[13] = 4 mg/kg/day subcutaneously days 10-13 of pregnancy, serum day 11, 24 hours after initial injection
[14] = 4 mg/kg/day subcutaneously in corn oil once daily days 10-13 of pregnancy, autopsy day 14
[15] = 8 mg/kg/day subcutaneously days 10-13 of pregnancy, serum day 11, 24 hours after initial injection
[16] = 8 mg/kg/day subcutaneously in corn oil once daily days 10-13 of pregnancy, autopsy day 14
[17] = 16 mg/kg/day subcutaneously days 10-13 of pregnancy, serum day 11, 24 hours after initial injection

CC1(C)C(=O)[C@H](C#N)C[C@@]2(C)C1=CC[C@@H]1[C@@H]2CC[C@@]2(C)[C@H]1CC[C@]2(C)O [Cyanoketone, 2α-cyano-17β-hydroxy-3-oxo-4,4,17α-trimethylandrost-5-end]
Adrenal Wt. mg + SE [1, 3]: 55.8 + 4.1 mg | Fetal Viability: Normal Fetuses/Implantation Sites [1, 3]: 54/56 | Fetal Viability: Normal Fetuses/Implantation Sites (Percent) [1, 3]: 96% | Number of Rats Pregnant/Number of Rats Treated [1, 3]: 5/5 | Number of Rats Pregnant/Number of Rats Treated (Percent) [1, 3]: 100% | Adrenal Wt. mg + SE [1, 4]: 64.1 + 5.2 mg | Fetal Viability: Normal Fetuses/Implantation Sites [1, 4]: 56/77 | Fetal Viability: Normal Fetuses/Implantation Sites (Percent) [1, 4]: 72% | Number of Rats Pregnant/Number of Rats Treated [1, 4]: 6/6 | Number of Rats Pregnant/Number of Rats Treated (Percent) [1, 4]: 100% | Adrenal Wt. mg + SE [1, 5]: 75.9 + 6.1 mg | Fetal Viability: Normal Fetuses/Implantation Sites [1, 5]: 46/84 | Fetal Viability: Normal Fetuses/Implantation Sites (Percent) [1, 5]: 55% | Number of Rats Pregnant/Number of Rats Treated [1, 5]: 4/7 | Number of Rats Pregnant/Number of Rats Treated (Percent) [1, 5]: 57% | Fetal Viability: Normal Fetuses/Implantation Sites [1, 6]: 11/112 | Fetal Viability: Normal Fetuses/Implantation Sites (Percent) [1, 6]: 10% | Number of Rats Pregnant/Number of Rats Treated [1, 6]: 1/9 | Number of Rats Pregnant/Number of Rats Treated (Percent) [1, 6]: 11% | Adrenal Wt. mg + SE [1, 7]: 61.3 + 3.0 mg | Fetal Viability: Normal Fetuses/Implantation Sites [1, 7]: 8/108 | Fetal Viability: Normal Fetuses/Implantation Sites (Percent) [1, 7]: 7% | Number of Rats Pregnant/Number of Rats Treated [1, 7]: 1/9 | Number of Rats Pregnant/Number of Rats Treated (Percent) [1, 7]: 11% | Adrenal Wt. mg + SE [1, 8]: 60.3 + 1.6 mg | Fetal Viability: Normal Fetuses/Implantation Sites [1, 8]: 10/106 | Fetal Viability: Normal Fetuses/Implantation Sites (Percent) [1, 8]: 9% | Number of Rats Pregnant/Number of Rats Treated [1, 8]: 1/10 | Number of Rats Pregnant/Number of Rats Treated (Percent) [1, 8]: 10% | Serum Progesterone (Percent Control) [2, 9]: 124 Percent Control | Serum Progesterone ng/ml + S.E. [2, 9]: 54.1 + 2.6 ng/ml | Adrenal Wt. mg + SE [2, 10]: 83.4 + 4.0 mg | Fetal Viability: Normal Fetuses/Implantation Sites [2, 10]: 80/82 | Fetal Viability: Normal Fetuses/Implantation Sites (Percent) [2, 10]: 98% | Number of Rats Pregnant/Number of Rats Treated [2, 10]: 7/7 | Number of Rats Pregnant/Number of Rats Treated (Percent) [2, 10]: 100% | Serum Progesterone (Percent Control) [2, 11]: 94 Percent Control | Serum Progesterone ng/ml + S.E. [2, 11]: 40.8 + 2.2 ng/ml | Adrenal Wt. mg + SE [2, 12]: 91.6 + 4.6 mg | Fetal Viability: Normal Fetuses/Implantation Sites [2, 12]: 94/103 | Fetal Viability: Normal Fetuses/Implantation Sites (Percent) [2, 12]: 91% | Number of Rats Pregnant/Number of Rats Treated [2, 12]: 8/8 | Number of Rats Pregnant/Number of Rats Treated (Percent) [2, 12]: 100% | Serum Progesterone (Percent Control) [2, 13]: 92 Percent Control | Serum Progesterone ng/ml + S.E. [2, 13]: 40.0 + 3.5 ng/ml | Adrenal Wt. mg + SE [2, 14]: 93.1 + 4.0 mg | Fetal Viability: Normal Fetuses/Implantation Sites [2, 14]: 27/87 | Fetal Viability: Normal Fetuses/Implantation Sites (Percent) [2, 14]: 32% | Number of Rats Pregnant/Number of Rats Treated [2, 14]: 3/6 | Number of Rats Pregnant/Number of Rats Treated (Percent) [2, 14]: 50% | Serum Progesterone (Percent Control) [2, 15]: 44 Percent Control | Serum Progesterone ng/ml + S.E. [2, 15]: 22.1 + 6.0 ng/ml | Adrenal Wt. mg + SE [2, 16]: 78.8 + 3.9 mg | Fetal Viability: Normal Fetuses/Implantation Sites [2, 16]: 36/119 | Fetal Viability: Normal Fetuses/Implantation Sites (Percent) [2, 16]: 30% | Number of Rats Pregnant/Number of Rats Treated [2, 16]: 5/10 | Number of Rats Pregnant/Number of Rats Treated (Percent) [2, 16]: 50% | Serum Progesterone (Percent Control) [2, 17]: 48 Percent Control | Serum Progesterone ng/ml + S.E. [2, 17]: 24.3 + 7.6 ng/ml | Serum Progesterone (Percent Control) ([2]; 16 mg/kg/day subcutaneously days 10-13 of pregnancy, serum day 11, determined by RIA at Interlab Associates (footnote 2)): 70 Percent Control | Serum Progesterone ng/ml + S.E. ([2]; 16 mg/kg/day subcutaneously days 10-13 of pregnancy, serum day 11, group whose values were determined by RIA at Interlab Associates (footnote 2)): 50.7 + 5.4 ng/ml | Adrenal Wt. mg + SE ([2]; 16 mg/kg/day subcutaneously in corn oil once daily days 10-13 of pregnancy, autopsy day 14, 16 mg/kg/day): 77.0 + 4.5 mg and 105.2 mg

— US4388311A, “Method for the induction of menses” (G. D. Searle & Co., priority 1982, dated 1983)
